Patent US11104618B2, “Fertilizer composition and methods of making and using same” (SABIC GLOBAL TECHNOLOGIES B.V., priority 2015, dated 2021)

Tests used:
[1] = Thermal stability of NBTPT at urea melt temperature by HPLC; format: physicochemical
Description: The thermal stability of neat NBTPT and NBTPT contained within a core, as disclosed herein, can be determined by HPLC. For example, neat NBTPT or a core containing NBTPT can be exposed to 135° C. (133-135° C. is the typical temperature range of a urea melt) and can continuously be analyzed by HPLC every 5 min, until 30 min on analysis was reached. Such data will determine whether the NBTPT has better thermal stability when contained within a core, as compared to neat NBTPT.
Stability of inhibitors in urea melt: Extrudates containing inhibitors were tested for their stability in urea melt using HPLC and LCMS.

Upland Crowley Soil = assay: Nitrogen loss after 17 days of exposure to soil (IFDC)
Description: The nitrogen volatilization was measured in different soils for several samples and compared to products on the market, such as Agrotain®, ESN®, and SuperU®. The samples were tested in Greenville soil, Crowley soil, and Brownfield Soil. Crowley soil consists of very deep, somewhat poorly drained, very slowly permeable soils that formed in clayey fluviomarine deposits of the Pleistocene age. The soil exist in nearly level to very gently sloping soils and occur on flat coastal plains terraces. The slope is dominantly less than 1 percent but ranges to up to 3 percent. The mean annual precipitation is about 1549 mm (61 in), and the mean annual air temperature is about 20 degrees C. (68 degrees F.), where the soil is found. The soil is fine, […], and […].

| Compound | thermal stability of neat NBTPT ([1]; neat, exposed to 133-135° C. over time, FIG. 13) | thermal stability of NBTPT within a fertilizer core particle ([1]; within a core exposed to 133-135° C. over time, FIG. 14) | Cumulative Nitrogen Loss (mg) by 17 Days (Upland Crowley Soil; 17 days of exposure to Upland Crowley Soil) | % Urea (Upland Crowley Soil; nitrogen loss relative to urea, 17 days, Upland Crowley Soil) | % Reduction in Nitrogen Loss (Upland Crowley Soil; versus urea, 17 days, Upland Crowley Soil) |
| --- | --- | --- | --- | --- | --- |
| CCCCNP(N)(N)=S [NBTPT, N-(n-butyl) thiophosphoric triamide] | decomposes at this temperature over time | stable over time and does not decompose | – | – | – |
| NC(N)=O [Urea, urea] | – | – | 299.08 mg | 100% | 0% |
